Data: PubChem BioAssay (NCI)
Values joined by “and” are separate entries in the source; they are usually repeats but may differ in a detail not shown here. Identical values can stand only once.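 Dose response: 5 concentrations. Exposure: 48 h. Format: 96-well plates. Endpoint: linear interpolation; highest concentration if not reached. The concentration for 50% growth inhibition is given as GI50. The concentration for full growth arrest is given as TGI.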

Key:
Test in all cases: DTP human tumour cell line panel, 48 h
COLO 205 colon = test system: COLO 205 colon
HCC-2998 colon = test system: HCC-2998 colon
HOP-62 NSCLC = test system: HOP-62 NSCLC
KM12 colon = test system: KM12 colon
NCI-H460 lung = test system: NCI-H460 lung
NCI/ADR-RES ovarian = test system: NCI/ADR-RES ovarian
SF-295 CNS = test system: SF-295 CNS
SN12C renal = test system: SN12C renal
U251 CNS = test system: U251 CNS
UACC-257 melanoma = test system: UACC-257 melanoma

Row | SMILES | GI50 (COLO 205 colon) [nM] | TGI (COLO 205 colon) | GI50 (HCC-2998 colon) [nM] | TGI (HCC-2998 colon) [µM] | GI50 (HOP-62 NSCLC) [nM] | TGI (HOP-62 NSCLC) | GI50 (KM12 colon) [nM] | TGI (KM12 colon) [µM] | GI50 (NCI-H460 lung) [nM] | TGI (NCI-H460 lung) | GI50 (NCI/ADR-RES ovarian) [nM] | TGI (NCI/ADR-RES ovarian) | GI50 (SF-295 CNS) [nM] | TGI (SF-295 CNS) | GI50 (SN12C renal) [nM] | TGI (SN12C renal) | GI50 (U251 CNS) [nM] | TGI (U251 CNS) [µM] | GI50 (UACC-257 melanoma) [µM] | TGI (UACC-257 melanoma) [µM]
1 | O=c1nc2oc3ccc4ccccc4c3cc-2s1 | 16300 | > 100 µM | > 100000 | > 100 | 4700 | > 79 µM | 961 | > 100 | 4930 | > 100 µM | > 100000 | > 100 µM | 2960 | > 92.7 µM | 20400 | > 100 µM | 4400 | > 100 | > 69.9 | > 100
2 | C=C1C(=O)OC2C1C(OC(=O)/C(C)=C/C)CC(O)(CCl)C1C(O)C3OC3(C)C21O (stereo unspecified) |  | 41.9 µM |  | > 50 |  | > 50 µM |  | > 50 |  | > 50 µM |  | > 50 µM |  | > 50 µM |  | > 50 µM |  | > 50 |  | > 50
3 | C=C(CO[Si](C)(C)C(C)(C)C)C(C)=O |  | > 71 µM |  | 57.3 |  | > 100 µM |  | > 100 |  | > 100 µM |  | 99.6 µM |  | > 100 µM |  | > 68.5 µM |  | > 100 |  | 34.3
4 | O=C(Nc1ccc(Cl)cc1)Nc1ccc(Nc2nncc3ccccc23)cc1 | 2770 | 9.58 µM | 3260 | 19.8 | 3000 | 14.9 µM | 1470 | 11.4 | 2910 | 11.9 µM | 2790 | 26.3 µM | 2840 | 11 µM | 4580 | 37.2 µM | 2860 | 10.3 | 3.41 | 10.8
5 | COc1c(Cl)cc(NC(=S)C#N)cc1Cl |  | 32.2 µM |  | 32.6 |  | > 50.9 µM |  | 85.6 |  | 68.2 µM |  | 54.4 µM |  | > 79.9 µM |  | 53.5 µM |  | 43.6 |  | 53.9
6 | CN(C)c1ccc2c(c1)OC(N)=C(C#N)C2c1ccc2c(c1)CCO2 (stereo unspecified) | 280 | 3.39 µM | 469 | > 100 |  | > 76.7 µM | < 30.9 | > 42 | < 23.1 | 18.3 µM | < 27.9 | > 22.1 µM | < 20.8 | 1.95 µM | 644 | 42.5 µM | 198 | 29.8 | 27 | > 100
7 | COc1ccc(/C=C2\CCCC3=C2NC(N)=NC3c2ccc(OC)c(OC)c2)cc1OC (stereo unspecified) | 4800 | > 100 µM | > 100000 | > 100 | 4040 | > 66.9 µM | 6870 | > 100 | 25200 | > 100 µM | 1930 | > 100 µM | 8690 | > 100 µM | > 39600 | > 100 µM | 2530 | > 91.9 | 5 | > 81.1
8 | NC(=S)N/N=C/c1ncccc1N | 2540 | 12.1 µM and > 10 µM | 1140 | > 100 | 739 | 13.1 µM and 9.78 µM | 5380 | > 100 | 654 | 12.6 µM and > 10 µM | 1660 | 14.9 µM and 8.77 µM | 654 | 10.7 µM and 5.07 µM | 789 | 16.5 µM and > 10 µM | 659 | > 100 |  | > 80.7
9 | CC[C@H](CO)Nc1nc(NCc2ccccc2)n2ncc(C(C)C)c2n1 | 1120 | 3.15 µM | 1200 | 3.27 | 2100 | 8.72 µM | 711 | 2.79 | 1050 | 10.9 µM | 2080 | 15.7 µM | 812 | 4.74 µM | 2410 | 14.4 µM | 1400 | 10.5 | 3.56 | 15
10 | CCCCN(CCCC)c1ccc(C(=N)c2ccc(N(CCCC)CCCC)cc2)cc1 | 322 | 1.05 µM | 442 | 1.65 | 748 | 2.11 µM | 334 | 1.25 | 773 | 2.13 µM | 479 | 1.67 µM | 499 | 1.79 µM | 350 | 1.44 µM | 351 | 1.28 | 0.561 | 1.63
11 | CCN(CC)Cc1ccc(Nc2nccc(-c3cnn4ncccc34)n2)cc1 | 8.29 | 0.0337 µM | 33.3 | 0.129 | 14.5 | > 25 µM | 10.1 | 0.102 | 16.9 | 2.99 µM | 32 | > 25 µM | 31.1 | > 25 µM | 14.1 | > 25 µM | 14 | > 25 | 0.0443 | 0.143
12 | O=C(Nc1cccc(NC(=O)Nc2cc(C(F)(F)F)ccc2Cl)c1)Nc1cc(C(F)(F)F)ccc1Cl | 3440 | > 100 µM | 6720 | > 100 | 1350 | 4.01 µM | 1530 | 57.1 | 2220 | 10.5 µM | 3010 | 17.7 µM | 1590 | 12.2 µM | 2560 | 23.9 µM | 1930 | 7.91 | 4.29 | 41.4
13 | O=C(COc1ccc(/C=C2\Oc3ccccc3C2=O)cc1)Nc1nc2c(s1)CCCC2 | > 73200 | > 100 µM | 16000 | 52.3 | 22500 | 97.9 µM | 403 | 27.5 | 30300 | > 100 µM | 2190 | > 59.1 µM | 10100 | 43.9 µM | 4640 | > 92 µM | 2290 | > 100 | 0.0449 | 0.835
14 | CC1(C)[C@@H](OC(N)=O)[C@H]2O[C@H]2[C@]2(CO)[C@H]3CC[C@]4(C)[C@@H](c5ccc(=O)oc5)[C@@H](Cl)C[C@]4(O)C3=CC[C@@H]12 | 10.9 | 0.0506 µM | 15.1 | 0.107 | 4.32 | 0.00847 µM | 10.7 | 0.0445 | 4.68 | 0.00997 µM | 6.72 | 0.0174 µM | 7.2 | 0.0264 µM | 7.66 | 0.0325 µM | 8.58 | 0.0297 | 0.012 | 0.045
15 | COc1cc(C(=O)NC2CCN(C)CC2)c(F)cc1Nc1ncc2c(n1)N(C1CCCC1)CC(F)(F)C(=O)N2C | < 10 | 0.177 µM | 29.3 | 12.3 | < 14.1 | 13.2 µM | < 10 | 14 | < 16.8 | 12.4 µM | < 32.9 | 13.6 µM | < 17.6 |  | 60.4 | 14.4 µM | < 20.4 | 14.5 | 1.25 | 10.9
16 | COc1ccc(/C=C2\S/C(=N/Nc3nc(-c4ccccc4)cs3)NC2=O)cc1OC |  | > 100 µM |  | 64.2 |  | > 100 µM |  | 82.2 |  | > 100 µM |  | 49.8 µM |  | 86.3 µM |  | > 100 µM |  | 87.2 |  | > 100
17 | CC1=C(CO)C(=O)O[C@@H]([C@@H](C)[C@H]2CC[C@H]3[C@@H]4C[C@@H](O)[C@@]5(O)CC=CC(=O)[C@]5(C)[C@H]4CC[C@]23C)C1 |  | > 100 µM |  | > 100 |  | > 100 µM |  | 58.8 |  | 38.3 µM |  | 64.2 µM |  | > 100 µM |  | > 100 µM |  | > 100 |  | > 100
18 | O=C(/C=C/c1ccc([N+](=O)[O-])cc1)c1ccc2c3c(cccc13)CC2 | 4980 | > 25.4 µM | 26900 | > 78.1 | 11400 | > 81.9 µM | 3100 | 14.2 | 4230 | > 64.8 µM | 20800 | > 100 µM | 6230 | > 100 µM | > 34600 | > 100 µM | 2650 | > 29.6 | > 46 | > 94.4
19 | COc1ccc(C(=O)c2cc3c(N)c(C(=O)Nc4cccc5ccccc45)sc3nc2C)cc1 | 209 | > 13.3 µM | 424 | > 50 | 314 | > 50 µM | 215 | > 50 | 180 | > 22.5 µM | 181 | > 50 µM | 172 | > 50 µM | 320 | > 50 µM | 194 | > 50 | > 50 | > 50
20 | CC(C)(O)CC(=O)NCCn1ccc2ncnc(Nc3ccc(Oc4cccc(C(F)(F)F)c4)c(Cl)c3)c21 | 3500 | > 10 µM | 3850 | > 10 | 4700 | > 10 µM | 3670 | > 10 | 3370 | > 10 µM | 2580 | > 10 µM | 3790 | > 10 µM | 2000 | > 10 µM | 3450 | > 10 |  | > 10
21 | CCc1ccc(NC(=O)COC(=O)c2cc([N+](=O)[O-])ccc2Sc2nnnn2C)cc1 | 16000 | 33.8 µM | 15700 | 29.2 | 15200 | 36 µM | 19600 | > 100 | 13000 | 33.3 µM | 5660 | 47.2 µM | 17500 | 49.4 µM | 33200 | > 100 µM | 15400 | 34.1 | 19.3 | 61.2
22 | COc1ccc(C2SC(C)C(=O)N2NC(=O)C(O)c2ccccc2)cc1OC (stereo unspecified) | > 100000 | > 100 µM | > 100000 | > 100 | > 100000 | > 100 µM | > 100000 | > 100 | > 100000 | > 100 µM | > 100000 | > 100 µM | > 100000 | > 100 µM | > 100000 | > 100 µM | > 100000 | > 100 | > 100 | > 100
23 | Cn1cc(C2=C(c3cccc(OCC(O)CO)c3)C(=O)NC2=O)c2ccccc21 (stereo unspecified) | > 25000 | > 25 µM | > 25000 | > 25 | > 25000 | > 25 µM | > 25000 | > 25 | > 25000 | > 25 µM | > 25000 | > 25 µM | > 25000 | > 25 µM | > 25000 | > 25 µM | > 25000 | > 25 | > 25 | > 25
24 | Cc1ccc(CNc2c3ccccc3nc3cc(NC(=O)CCN4CCCC4)ccc23)cc1 | 408 | 1.62 µM | 573 | 2.01 | 680 | 2.38 µM | 534 | 1.79 | 365 | 1.25 µM | 4020 | 24.2 µM | 1040 | 2.35 µM | 479 | 1.74 µM | 688 | 2.05 | 1.69 | 3.27
25 | Nc1nc(Nc2ccc(C3CCC(N4CCOCC4)CC3)cc2)nn1-c1ccccn1 (stereo unspecified) | 5170 | > 100 µM | 17200 | > 100 | 3040 | > 68.4 µM | 180 | 38 | 4590 | > 69.2 µM | 9330 | > 100 µM | 2920 | 10.9 µM | 2400 | > 100 µM | 5050 | > 100 | 3.43 | 12.2
26 | CN1CC[C@@H](c2c(O)cc(O)c3c(=O)cc(-c4ccccc4Cl)oc23)[C@@H]1CO | 262 | 0.785 µM | 360 | 3.67 | 304 | 1.2 µM | 254 | > 9 | 318 | > 10 µM | 1570 | > 10 µM | 335 | > 10 µM | 299 | > 10 µM | 258 | > 10 | 0.296 | 1.36
27 | CC1(C)C2C=CC1(C)C1(CC2)OCCO1 (stereo unspecified) |  | > 100 µM |  | > 100 |  | > 100 µM |  | > 100 |  | > 100 µM |  | > 100 µM |  | > 100 µM |  | > 100 µM |  | > 100 |  | > 100
